Measured values taken from ChEMBL document CHEMBL1201862, “PubChem BioAssay data set” (2004).
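Five concentrations, 48 hours, 96-well plates. GI50: concentration for 50% inhibition of growth.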 Activity calls are given as the source filed them. Rule as the data show it: active = GI50 up to about 1.1 µM and inactive = higher.

Tests used:
Experiment in all cases: NCI anticancer screen, dose series, 48 h
CCRF-CEM = system: CCRF-CEM
M14 = system: M14
NCI-H522 = system: NCI-H522
KM12 = system: KM12
HL-60 = system: HL-60
Malme-3M = system: Malme-3M
SK-MEL-2 = system: SK-MEL-2
NCI-H460 = system: NCI-H460
UACC-62 = system: UACC-62
HCC 2998 = system: HCC 2998
OVCAR-5 = system: OVCAR-5
TK-10 = system: TK-10
COLO 205 = system: COLO 205
K562 = system: K562
SR = system: SR

Measured: GI50

CCCCCN(CCCCC)C(=O)[C@H](CCC(=O)O)NC(=O)c1cc2ccccc2[nH]1
inactive: CCRF-CEM 33.4 µM | M14 59.7 µM | NCI-H522 20.2 µM | KM12 50.4 µM | HL-60 29.3 µM | Malme-3M 94.8 µM | SK-MEL-2 41.9 µM | NCI-H460 39.3 µM | UACC-62 28.1 µM | HCC 2998 33.4 µM | OVCAR-5 > 100 µM | TK-10 > 100 µM | COLO 205 > 100 µM | K562 34.8 µM

O=C(O)\C=C/C=C/C=C/C=C/C(=O)O
inactive: CCRF-CEM > 100 µM | M14 > 100 µM | SR > 100 µM | NCI-H522 > 100 µM | KM12 > 100 µM | HL-60 > 100 µM | Malme-3M > 100 µM | SK-MEL-2 > 100 µM | NCI-H460 > 100 µM | UACC-62 90.4 µM | HCC 2998 > 100 µM | OVCAR-5 > 100 µM | COLO 205 > 100 µM | K562 > 100 µM

CC1=C(C(=O)Nc2ccc(Cl)c(Cl)c2)C(c2ccco2)C(C(=O)Nc2ccc(Cl)c(Cl)c2)=C(C)N1
inactive: CCRF-CEM 6.58 µM | M14 6.14 µM | SR 10.6 µM | NCI-H522 5.73 µM | KM12 13.4 µM | HL-60 19.3 µM | Malme-3M 14.8 µM | SK-MEL-2 12.4 µM | NCI-H460 13.7 µM | UACC-62 12.9 µM | HCC 2998 11.5 µM | OVCAR-5 15.1 µM | TK-10 6.44 µM | COLO 205 12.9 µM | K562 7.06 µM

COc1cc2c(c(C)c1O)[C@H]1COc3ccccc3[C@H]1O2
inactive: CCRF-CEM 13.6 µM | M14 8.15 µM | NCI-H522 3.27 µM | KM12 24.7 µM | HL-60 2.94 µM | Malme-3M 22.1 µM | SK-MEL-2 3.16 µM | NCI-H460 11.3 µM | UACC-62 7.89 µM | HCC 2998 > 10 µM | OVCAR-5 55.3 µM | TK-10 31.5 µM | COLO 205 18.7 µM | K562 4.29 µM

Nc1cc2c(C3OC(CO)C(O)C3O)n[nH]c2c(=S)[nH]1 (configuration not stated)
inactive: CCRF-CEM > 100 µM | M14 > 100 µM | SR > 100 µM | NCI-H522 > 100 µM | KM12 > 100 µM | HL-60 41.2 µM | Malme-3M > 100 µM | SK-MEL-2 98.2 µM | NCI-H460 > 100 µM | UACC-62 > 100 µM | HCC 2998 > 100 µM | OVCAR-5 > 100 µM | COLO 205 > 100 µM | K562 > 100 µM

O=c1nc2sc3ccc4ccccc4c3n2nc1O
inactive: CCRF-CEM 40.1 µM | NCI-H522 53.7 µM | KM12 > 100 µM | HL-60 > 100 µM | NCI-H460 39.3 µM | UACC-62 46.7 µM | HCC 2998 54.8 µM | TK-10 > 100 µM | COLO 205 62.4 µM | K562 44.5 µM

COc1ccc(N2C(=O)C3C=CC(n4[nH]c(=O)n(Cc5ccccc5)c4=O)CC3C2=O)cc1 (configuration not stated)
inactive: CCRF-CEM > 100 µM | M14 > 100 µM | NCI-H522 > 100 µM | KM12 > 100 µM | HL-60 > 100 µM | Malme-3M > 100 µM | SK-MEL-2 > 100 µM | NCI-H460 > 100 µM | UACC-62 > 100 µM | HCC 2998 > 100 µM | OVCAR-5 > 100 µM | TK-10 > 100 µM | COLO 205 > 100 µM | K562 > 100 µM

O=C1/C(=C/c2ccccc2Cl)COc2ccc(Br)cc21
inactive: CCRF-CEM 4.49 µM | NCI-H522 20.6 µM | KM12 22.4 µM | HL-60 18.5 µM | Malme-3M > 100 µM | SK-MEL-2 82.8 µM | NCI-H460 > 100 µM | HCC 2998 > 100 µM | OVCAR-5 > 100 µM | TK-10 > 100 µM | COLO 205 73.8 µM | K562 3.82 µM

Cc1ccc(C)c(N2C(=O)C(=O)C(c3nc4ccccc4s3)/C(=N/NC(=O)NN)C2=O)c1 (configuration not stated)
inactive: CCRF-CEM > 100 µM | M14 > 100 µM | SR > 100 µM | NCI-H522 > 100 µM | KM12 > 100 µM | HL-60 > 100 µM | Malme-3M > 100 µM | SK-MEL-2 > 100 µM | NCI-H460 > 100 µM | UACC-62 > 100 µM | HCC 2998 > 100 µM | TK-10 > 100 µM | COLO 205 > 100 µM

C/C(=N\O)C(CN1CCCCC1)C(c1ccccc1)c1c(O)c2ccccc2oc1=O (configuration not stated)
inactive: CCRF-CEM > 10 µM | M14 > 100 µM | NCI-H522 > 100 µM | HL-60 > 10 µM | Malme-3M > 100 µM | SK-MEL-2 > 100 µM | UACC-62 > 100 µM | HCC 2998 > 100 µM | OVCAR-5 > 100 µM | TK-10 > 100 µM | COLO 205 > 100 µM | K562 > 10 µM

N#Cc1sc2nc3c(c(-c4ccccc4)c2c1N)CCCC3
inactive: CCRF-CEM > 100 µM | M14 > 10 µM | SR > 100 µM | NCI-H522 66.5 µM | KM12 > 100 µM | HL-60 > 100 µM | Malme-3M > 100 µM | SK-MEL-2 > 100 µM | NCI-H460 55.2 µM | UACC-62 > 100 µM | HCC 2998 > 100 µM | OVCAR-5 > 100 µM | TK-10 > 100 µM | K562 > 100 µM

c1ccc(COc2cccc3cccnc23)cc1
inactive: CCRF-CEM 31.5 µM | M14 > 100 µM | NCI-H522 50.9 µM | KM12 61.4 µM | HL-60 19.9 µM | Malme-3M 48.4 µM | NCI-H460 > 100 µM | UACC-62 95.9 µM | HCC 2998 > 100 µM | OVCAR-5 > 100 µM | TK-10 > 100 µM | COLO 205 > 100 µM | K562 55 µM

COC1OC(C)C(OCc2ccccc2)C(OS(=O)(=O)c2ccc(C)cc2)C1OS(=O)(=O)c1ccc(C)cc1 (configuration not stated)
inactive: CCRF-CEM > 100 µM | M14 > 100 µM | SR > 100 µM | NCI-H522 > 100 µM | KM12 > 100 µM | HL-60 > 100 µM | Malme-3M > 100 µM | SK-MEL-2 > 100 µM | NCI-H460 > 100 µM | HCC 2998 > 100 µM | OVCAR-5 > 100 µM | COLO 205 > 100 µM | K562 > 100 µM

CCCc1nc(NC#N)nc(C(=O)Nc2ccccc2)c1CC
inactive: M14 > 100 µM | NCI-H522 > 100 µM | KM12 > 100 µM | HL-60 > 100 µM | Malme-3M > 100 µM | SK-MEL-2 > 100 µM | NCI-H460 > 100 µM | UACC-62 > 100 µM | HCC 2998 > 100 µM | OVCAR-5 > 100 µM | TK-10 > 100 µM | K562 > 100 µM

CCCCOC(=O)NC(=O)c1cn(CCCOC(=O)NCCCCCCNC(=O)OCCCn2cc(C(=O)NC(=O)OCCCC)c(=O)[nH]c2=O)c(=O)[nH]c1=O
inactive: M14 > 100 µM | SR > 100 µM | NCI-H522 > 100 µM | KM12 > 100 µM | HL-60 > 100 µM | Malme-3M > 100 µM | SK-MEL-2 > 100 µM | NCI-H460 > 100 µM | UACC-62 > 100 µM | HCC 2998 > 100 µM | OVCAR-5 > 100 µM | TK-10 41.8 µM | COLO 205 > 100 µM | K562 > 100 µM

N#CCC(=O)Nc1ccccc1O
inactive: CCRF-CEM > 100 µM | M14 > 100 µM | SR > 100 µM | NCI-H522 > 100 µM | KM12 > 100 µM | HL-60 > 100 µM | Malme-3M > 100 µM | SK-MEL-2 > 100 µM | NCI-H460 > 100 µM | UACC-62 > 100 µM | HCC 2998 > 100 µM | OVCAR-5 > 100 µM | TK-10 > 100 µM | COLO 205 > 100 µM | K562 > 100 µM

CC(c1ccccc1)N1O[C@]12CC[C@@]1(C)C(CCCC13OCCO3)C2 (some centres not stated)
inactive: M14 17.6 µM | SR 16.7 µM | NCI-H522 17.2 µM | KM12 21.3 µM | Malme-3M 32.1 µM | NCI-H460 20.4 µM | UACC-62 19.6 µM | HCC 2998 75.5 µM | OVCAR-5 > 100 µM | TK-10 18.3 µM | COLO 205 17.8 µM

C#CCOCn1cnc2c(S)ncnc21
inactive: CCRF-CEM > 100 µM | M14 > 100 µM | NCI-H522 > 100 µM | KM12 > 100 µM | HL-60 > 100 µM | Malme-3M > 100 µM | SK-MEL-2 > 100 µM | NCI-H460 > 100 µM | UACC-62 > 100 µM | HCC 2998 > 100 µM | OVCAR-5 > 100 µM | TK-10 > 100 µM | COLO 205 > 100 µM | K562 > 100 µM

O=C(OC[C@H]1O[C@@H](OC(=O)c2cc(O)c(O)c(O)c2)[C@H](OC(=O)c2cc(O)c(O)c(O)c2)[C@@H](OC(=O)c2cc(O)c(O)c(O)c2)[C@@H]1OC(=O)c1cc(O)c(O)c(O)c1)c1cc(O)c(O)c(O)c1 [PENTAGALLOYL GLUCOSE]
inactive: CCRF-CEM 3.33 µM | M14 7.23 µM | SR 4.13 µM | NCI-H522 3.46 µM | KM12 2.34 µM | HL-60 3.65 µM | SK-MEL-2 10.7 µM | NCI-H460 3.27 µM | UACC-62 2.26 µM | HCC 2998 3.21 µM | OVCAR-5 7.94 µM | TK-10 4.88 µM | COLO 205 4.98 µM | K562 47.2 µM
